Measured values published in publication PMC6515058 (International Journal of Molecular Sciences, 2019).
Read-outs that look alike come from different tables or passages of the source. One block for each compound: values may come before it.

Key:
[1] = system: chicken intestinal P-gp; assay: In situ single-pass intestinal perfusion of Rho123 in berberine-treated broilers; assay type: in vivo
Description: (§1) Arbor Acres broilers (one day old) were purchased from the Liuhe Hatchery (Nanjing, Jiangsu, China). The broilers were provided a basal diet and water ad libitum and managed under the recommended humidity and temperature for 6 weeks. Then, 18 healthy broilers with similar body weight (b.w.) were randomly divided into three groups (6 broilers/group). Group I was administered phosphate-buffered saline for 24 h (control).
The broilers were divided into three experimental groups and drugs were administered as described above. Broilers were fasted for 12 h with free access to water before the perfusion experiment. Then, the animals were anesthetized with urethane intraperitoneally (0.5 mL/kg b.w.) and an incision was made through the abdominal cavity. A 10-cm intestinal segment was carefully exposed to air for intestinal perfusion. Two polyethylene cannulas were inserted through small slits at the proximal and distal ends (inlet and outlet). Initially, the intestinal segment was gently flushed with Krebs-Ringer buffer for about 30 min until a clear effluent flowed out. Then, Rho123 (1.5 ng/mL) solution was introduced into the loop at a constant flow rate of 0.2 mL/min. The intestinal fluid was collected in bottles at the outlet of the intestine at intervals of 10 min for up to 100 min. The lengths and internal radii of the intestinal segments were measured after all of the chickens were killed by cervical dislocation.
All samples were weighed and centrifuged for 10 min at 4500 rpm. The supernatants were filtered using a 0.22-μm filter (Millipore, Burlington, MA, USA) and samples were collected for analysis by high-performance liquid chromatography (HPLC).

[2] = system: chicken P-gp; assay: Bidirectional transport of Rho123 across MDCK-chAbcb1 cell monolayer (P-gp inhibition); assay type: cell-based; settings: for Papp A→B at 80 min, 4 mM: read-out: Papp AP→BL of Rho123
Description: (§2) The MDCK-chAbcb1 cell line stably expressing chicken P-gp was previously established in our laboratory. Briefly, the full-length chicken cDNA was first cloned into the pcDNA3.1 vector and then transfected into MDCK cells using Lipofectamine 2000. Single cells stably expressing chicken P-gp were collected using the limited dilution method in medium containing hygromycin B (100 μg/mL) to obtain the MDCK-chAbcb1 cell line. The cell line was cultured in Dulbecco’s modified Eagle’s medium containing 10% fetal bovine serum, antibiotics (100 IU/mL penicillin and 80 IU/mL streptomycin), and 50 μg/mL hygromycin B and incubated at 37 °C in humidified air with 5% CO2.
The samples were collected at 20, 40, 60, and 80 min from the receiving sides and analyzed by HPLC.
(§3) In the third equation, A is the membrane surface area of the filter, C0 is the initial concentration of the test drug, dQ is the amount of transported drug, and dt is the time elapsed. In the fourth equation, Papp B→A and Papp A→B are the apparent permeability coefficients for the basolateral-to-apical and apical-to-basolateral directions, respectively.
The inhibition rate was calculated using the following equation:(5) Inhibition rate=ERcontrol−ERtreatment/ERcontrol

[3] = design: method as in data published in a Chinese journal, Figure S3; settings: broilers, berberine co-administration; ref data published in a Chinese journal, Figure S3; cited from earlier work
[4] = system: chicken P-gp; assay: Bidirectional transport of veterinary drugs across MDCK-chAbcb1 cell monolayer with berberine; settings: for efflux ratio at 20 μM: chicken
Description: as §2
Then, the samples collected from the receiving sides were subjected to an HPLC analysis. Of note, the transport periods for all of the drugs were determined by a preliminary experiment to avoid the saturation of P-gp.
The apparent permeability coefficients (Papp) and the efflux ratio (ER) were calculated as follows:(3) Papp=dQ/dt×1/(A×Co) (4) ER=Papp(B→A)/Papp(A→B)
as §3

[5] = system: Abcb1 mRNA; assay: Abcb1 mRNA expression in the ileum of broilers by real-time RT-PCR after oral berberine; assay type: in vivo; settings: berberine 40 and 80 mg/kg, 24 h, vs control, p < 0.01
Description: as §1
GAPDH was used as an internal control.

[6] = system: chicken xenobiotic receptor (CXR) mRNA; assay: CXR mRNA expression in the ileum of broilers by real-time RT-PCR after oral berberine; assay type: in vivo; settings: berberine 40 and 80 mg/kg, 24 h, vs control, p < 0.01
Description: Arbor Acres broilers (one day old) were purchased from the Liuhe Hatchery (Nanjing, Jiangsu, China). The broilers were provided a basal diet and water ad libitum and managed under the recommended humidity and temperature for 6 weeks. Then, 18 healthy broilers with similar body weight (b.w.) were randomly divided into three groups (6 broilers/group). Group I was administered phosphate-buffered saline for 24 h (control). […] Chicken treatment procedures were approved by the Science and Technology Agency of Jiangsu Province (approval no. 2017-0007, approval date: 15th, February, 2017) and performed in accordance with the guidelines of the Science and Technology Agency of Jiangsu Province and Nanjing Agricultural University. Broilers were divided into three experimental groups and drugs were administered as described above. At the end of experiments, animals were killed by decapitation. The ileum samples were collected immediately and stored at −80 °C for further tests. […] RNAs were quantified using a photometer (Eppendorf, Hamburg, Germany) at 260/280 nm. […] Chicken Abcb1 and chicken xenobiotic receptor (CXR) mRNAs were quantified using SYBR Green Realtime PCR Master Mix (Toyobo, Japan) on a real-time PCR detection system (Bio-Rad Laboratories, Hercules, CA, USA). […] Relative levels of Abcb1 and CXR were analyzed using the 2^−ΔΔCt method.

[7] = Bidirectional transport of berberine across MDCK parental cell monolayer; assay type: in vitro ADME; settings: dog
[8] = system: chicken P-gp; assay: Bidirectional transport of berberine across MDCK-chAbcb1 cell monolayer; assay type: in vitro ADME; settings: for efflux ratio at 4 h, 100 μM: chicken
[9] = chicken, control of 8 h series, no berberine

efflux ratio at 20 μM [4]: 2.01
SMILES: CCN1CCN(c2cc3c(cc2F)c(=O)c(C(=O)O)cn3C2CC2)CC1 [enrofloxacin]

efflux ratio at 20 μM [4]: 2.77
SMILES: Nc1ccc(S(=O)(=O)Nc2ncccn2)cc1 [sulfadiazine]

efflux ratio at 20 μM [4]: 4.26
SMILES: CC[C@H]1OC(=O)C[C@@H](O)[C@H](C)[C@@H](O[C@@H]2O[C@H](C)[C@@H](O)[C@H](N(C)C)[C@H]2O)[C@@H](CCN2C[C@H](C)C[C@H](C)C2)C[C@@H](C)C(=O)/C=C/C(C)=C/[C@@H]1CO[C@@H]1O[C@H](C)[C@@H](O)[C@@H](OC)[C@H]1OC [tilmicosin]

Further lines, the compound ahead of its results:

SMILES: COC(=O)c1ccccc1-c1c2ccc(=N)cc-2oc2cc(N)ccc12 [Rho123, rhodamine 123]
Papp at 100 min, 1.5 ng/mL ([1]; Arbor Acres, chicken, other: in situ single-pass intestinal perfusion): 123 ± 42 ×10⁻⁶ cm/s
Ka of Rho123 ([1]; control (no berberine), in situ perfusion, n = 6): 1.12 ± 0.28 min⁻¹
efflux ratio at 2 h, 4 mM ([2]; chicken, control of 2 h series, no berberine, read-out: Efflux ratio of Rho123): 7.28 ± 0.98
Papp A→B at 80 min, 4 mM ([2]; chicken, control of 2 h series, no berberine): 8.86 ± 1.38 ×10⁻⁶ cm/s
Papp B→A at 2 h, 4 mM ([2]; chicken, control of 2 h series, no berberine, read-out: Papp BL→AP of Rho123): 62.9 ± 7.69 ×10⁻⁶ cm/s
efflux ratio at 8 h, 4 mM [2, 9]: 7.24 ± 0.49
Papp A→B at 80 min, 4 mM [2, 9]: 8.62 ± 1.24 ×10⁻⁶ cm/s
Papp B→A at 8 h, 4 mM ([2]; chicken, control of 8 h series, no berberine, read-out: Papp BL→AP of Rho123): 60.1 ± 5.13 ×10⁻⁶ cm/s
efflux ratio at 2 h, 4 mM ([2]; chicken, control of verapamil series, verapamil 0 µM, read-out: Efflux Ratio of rhodamine 123): 6.24 ± 0.7
Papp A→B at 2 h, 4 mM ([2]; chicken, control of verapamil series, verapamil 0 µM, read-out: Papp AP→BL of rhodamine 123): 8.04 ± 0.76 ×10⁻⁶ cm/s
Papp B→A at 2 h, 4 mM ([2]; chicken, control of verapamil series, verapamil 0 µM, read-out: Papp BL→AP of rhodamine 123): 54.4 ± 4.34 ×10⁻⁶ cm/s

SMILES: COc1ccc2cc3[n+](cc2c1OC)CCc1cc2c(cc1-3)OCO2 [berberine]
Bioavailability of orally administered enrofloxacin [3]: increases the bioavailability
Rho123 concentrations in the perfusion fluid ([1]; berberine 40 and 80 mg/kg, 24 h, vs control, p < 0.05): obvious decrease
ER of sulfadiazine ([4]; berberine 20 μM, 2 h pre-incubation, sulfadiazine 20 μM): did not obviously alter the ER
Inhibition rate (of Rho123 efflux ratio) ([2]; berberine 5 μM, 2 h): 41.48%
Inhibition rate (of Rho123 efflux ratio) ([2]; berberine 5 μM, 8 h): 39.64%
Inhibition rate (of Rho123 efflux ratio) ([2]; berberine 20 μM, 2 h): 53.3%
Inhibition rate (of Rho123 efflux ratio) ([2]; berberine 20 μM, 2 h, listed as Berberine): 53.30%
Inhibition rate (of Rho123 efflux ratio) ([2]; berberine 20 μM, 8 h): 62.57%
Inhibition rate (of Rho123 efflux ratio) ([2]; berberine 40 μM, 2 h): 73.6%
Inhibition rate (of Rho123 efflux ratio) ([2]; berberine 40 μM, 2 h, listed as Berberine): 73.63%
Inhibition rate (of Rho123 efflux ratio) ([2]; berberine 40 μM, 8 h): 68.23%
Abcb1 mRNA level in the ileum [5]: significantly down-regulated
CXR mRNA level in the ileum [6]: significantly down-regulated
efflux ratio at 4 h, 100 μM [7]: 1.24
efflux ratio at 4 h, 100 μM ([7]; with verapamil 100 μM): 1.21
Transport ratio (r) of berberine ([8]; MDCK-chAbcb1 cells, without verapamil, berberine 100 μM, 4 h): 4.2
efflux ratio at 4 h, 100 μM [8]: 4.2
efflux ratio at 4 h, 100 μM ([8]; with verapamil 100 μM): 1.13
